Key:
[1] = target: T1, PARP1 (Homo sapiens, UniProt P09874); test: PARP-1 enzymatic experiment (HT Universal Chemiluminescent PARP Assay kit); assay type: biochemical; conditions: chemiluminescence
T1 construct: purchased TREVIGEN
Protocol: Experimental Example 1: PARP-1 Enzymatic Experiment
Experimental materials: test compounds; HT Universal Chemiluminescent PARP Assay kit (purchased from TREVIGEN); PBS (purchased from Wisent); Triton X-100 (purchased from Macklin); Envision multi-marker analyzer (PerkinElmer).
(I) Preparation of Reagents:
• 1. Washing solution: Triton X-100 was added to 1-fold PBS, and the final concentration of Triton X-100 was 0.1%. • 2. 1-fold PARP buffer: the 20-fold PARP buffer in the kit was subjected to 20-fold dilution with water to prepare a 1-fold PARP buffer. This buffer was used to prepare the compound, enzyme solution and substrate solution. • 3. 1-fold Strep-Diluent solution: the 10-fold Strep-diluent in the kit was subjected to 10-fold dilution with water to prepare a 1-fold Strep-diluent solution.
(II) Preparation of Test Compounds:
Test compounds were serially 5-fold diluted to the 8th concentration with a multichannel pipette, i.e. from 200 μM to 2.56 nM, with the DMSO concentration being 100%. 2 μL of each of the inhibitors at various concentration gradients was added to a compound intermediate plate, and 38 μL of the 1-fold PARP buffer was then added; the two were mixed well for use, and the DMSO concentration was 5%.
(III) Experimental Method:
• a) The 1-fold PARP buffer was added to a test plate at 50 μL per well and incubated at 25° C. for 30 min. • b) After the incubation was completed, the liquid in the test plate was discarded, and each of the compounds at various concentration gradients was pipetted from the compound intermediate plate and added into the test plate at 10 μL per well. A duplicate-well experiment was performed. • c) The test plate was added with the enzyme solution (0.5 IU) at 15 μL per well. The compound and enzyme were incubated together at 25° C. for 10 min. • d) After the incubation was completed, 25 μL of the 1-fold PARP Cocktail (comprising 2.5 μL of 10-fold PARP Cocktail, 2.5 μL of 10-fold Activated DNA and 20 μL of 1-fold PARP buffer) was added to each well of the test plate. The test plate was incubated at 25° C. for 1 h. The final concentration of the compound was 2 μM to 0.0256 nM, and the DMSO concentration was […]. • e) After the incubation was completed, the test plate was washed twice with 200 μL of washing solution per well and then washed twice with 200 μL of PBS per well. • f) Strep-HRP in the kit was subjected to 500-fold dilution with the 1-fold Strep-Diluent solution, added to the test plate at 50 μL per well, and then incubated at 25° C. for 1 h. • g) After the incubation was completed, the test plate was washed twice with 200 μL of washing solution per well and then washed twice with 200 μL of PBS per well.
PeroxyGlow A and B in the kit were mixed at ratio of 1:1, and the mixed solution was added to the test plate at 100 μL per well. Chemiluminescence was immediately read using a PerkinElmer Envision multi-marker analyzer with an integration time of 0.5 s.
Data analysis: the original data was converted to inhibition using the equation (sample−Min)/(Max−Min)×[…], and the IC50 value was then curve filled using four parameters (obtained from the “log(inhibitor) vs. response-variable slope” model in GraphPad Prism).

[2] = target: T2, CYP1A2 (Homo sapiens, UniProt P05177); test: Inhibition against cytochrome P450 isoenzyme, human liver microsomes; assay type: in vitro ADME
T2 construct: a human liver microsome solution; from tissue; host or cells: human liver microsomes
T2 sequence (P05177 1-516): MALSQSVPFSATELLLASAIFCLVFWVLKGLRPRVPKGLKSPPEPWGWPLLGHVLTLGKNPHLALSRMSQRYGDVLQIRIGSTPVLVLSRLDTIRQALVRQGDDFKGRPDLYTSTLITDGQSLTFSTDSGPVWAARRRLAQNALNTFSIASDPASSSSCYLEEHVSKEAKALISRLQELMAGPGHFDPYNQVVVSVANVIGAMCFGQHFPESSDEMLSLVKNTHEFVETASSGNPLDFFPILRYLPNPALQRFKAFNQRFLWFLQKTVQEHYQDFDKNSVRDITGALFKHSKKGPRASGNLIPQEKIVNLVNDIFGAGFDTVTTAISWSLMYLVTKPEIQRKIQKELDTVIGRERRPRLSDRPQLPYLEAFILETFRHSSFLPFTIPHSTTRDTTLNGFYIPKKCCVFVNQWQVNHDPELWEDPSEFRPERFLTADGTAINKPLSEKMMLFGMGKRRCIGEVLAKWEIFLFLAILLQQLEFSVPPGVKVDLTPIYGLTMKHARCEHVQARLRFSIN
Protocol: (§1) Experimental Example 6: Study on Inhibition Against Cytochrome P450 Isoenzyme
(§2) The inhibition of the test compounds against different subtypes of the human cytochrome P450 isoenzyme was determined. Test compounds, a standard inhibitor (100×final concentration) and a mixed substrate working solution were prepared; the microsomes frozen in a refrigerator at −80° C. were taken out and thawed. 2 μL of a solution of the test compound and the standard inhibitor was added to corresponding wells, and 2 μL of a corresponding solvent was added to a non-inhibitor control (NIC) well and a blank control (Blank) well; then, 20 μL of a solution of mixed substrate was added to corresponding wells except for the Blank well (adding 20 μL of PB to the Blank well); a human liver microsome solution (marking the date after use and immediately putting back to a refrigerator) was prepared and then added to all wells at 158 μL per well; the sample plate was put into a 37° C. water bath for pre-incubation, and then a coenzyme factor (NADPH) solution was prepared; after 10 min, the NADPH solution was added to all the wells at 20 μL per well, and the sample plate was shaken to mix the mixture well and then incubated in a 37° C. water bath for 10 min; at corresponding time points, 400 μL of cold acetonitrile solution (internal standard: 200 ng/mL tolbutamide and labetalol) was added to stop the reaction; after being mixed well, the mixture in the sample plate was centrifuged at 4,000 rpm for 20 min to precipitate proteins; 200 μL of supernatant was collected and added into 100 μL of water, and the mixture was mixed well and then assayed by LC/MS/MS.

[3] = target: T3, CYP2C9 (Homo sapiens, UniProt P11712); test: as above; assay type: in vitro ADME
T3 construct: a human liver microsome solution; from tissue; host or cells: human liver microsomes
T3 sequence (P11712 whole entry): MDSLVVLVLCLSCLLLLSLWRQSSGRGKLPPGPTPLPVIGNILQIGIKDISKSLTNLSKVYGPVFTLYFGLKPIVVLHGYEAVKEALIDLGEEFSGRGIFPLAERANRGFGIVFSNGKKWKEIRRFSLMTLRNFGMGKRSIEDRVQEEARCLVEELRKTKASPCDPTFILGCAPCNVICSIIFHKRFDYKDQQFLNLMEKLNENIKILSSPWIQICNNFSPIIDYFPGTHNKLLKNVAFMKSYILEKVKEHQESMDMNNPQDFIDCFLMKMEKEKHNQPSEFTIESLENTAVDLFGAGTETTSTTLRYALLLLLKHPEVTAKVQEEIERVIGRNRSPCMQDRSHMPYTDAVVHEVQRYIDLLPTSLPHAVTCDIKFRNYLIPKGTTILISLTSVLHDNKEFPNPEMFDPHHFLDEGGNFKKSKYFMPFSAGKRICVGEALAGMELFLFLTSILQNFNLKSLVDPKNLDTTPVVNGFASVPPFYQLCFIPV
Protocol: as §1, §2

T1 sequence (P09874 whole entry): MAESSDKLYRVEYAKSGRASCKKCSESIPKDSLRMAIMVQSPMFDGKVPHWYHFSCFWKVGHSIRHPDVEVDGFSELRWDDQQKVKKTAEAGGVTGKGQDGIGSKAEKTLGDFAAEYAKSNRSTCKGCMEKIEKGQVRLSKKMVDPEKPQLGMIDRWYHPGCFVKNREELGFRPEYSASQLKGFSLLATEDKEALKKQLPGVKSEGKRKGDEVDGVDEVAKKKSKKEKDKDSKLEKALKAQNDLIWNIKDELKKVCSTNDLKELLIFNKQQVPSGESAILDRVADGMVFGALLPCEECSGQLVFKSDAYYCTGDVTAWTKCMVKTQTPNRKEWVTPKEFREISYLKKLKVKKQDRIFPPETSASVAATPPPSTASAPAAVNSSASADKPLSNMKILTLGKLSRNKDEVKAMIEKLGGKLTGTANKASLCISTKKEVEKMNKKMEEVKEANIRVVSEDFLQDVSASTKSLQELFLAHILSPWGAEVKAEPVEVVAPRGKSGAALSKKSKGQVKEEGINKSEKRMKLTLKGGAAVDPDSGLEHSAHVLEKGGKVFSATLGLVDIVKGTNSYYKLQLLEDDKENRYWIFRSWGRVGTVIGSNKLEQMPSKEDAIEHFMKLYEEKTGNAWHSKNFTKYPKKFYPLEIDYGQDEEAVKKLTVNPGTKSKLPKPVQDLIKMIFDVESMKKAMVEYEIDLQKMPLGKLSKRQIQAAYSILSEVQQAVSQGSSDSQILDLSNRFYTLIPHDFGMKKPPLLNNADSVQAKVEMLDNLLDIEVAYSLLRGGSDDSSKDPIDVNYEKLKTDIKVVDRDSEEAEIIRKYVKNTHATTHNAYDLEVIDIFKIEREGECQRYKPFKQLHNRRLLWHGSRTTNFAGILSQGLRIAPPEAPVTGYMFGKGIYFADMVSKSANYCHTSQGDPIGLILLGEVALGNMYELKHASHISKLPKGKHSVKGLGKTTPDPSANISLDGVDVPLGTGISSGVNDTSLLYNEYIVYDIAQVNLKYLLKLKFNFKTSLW

IC50 [1] | IC50 [2] | IC50 [3] | Compound
0.002 µM | 29.5 µM | > 50 µM | O=C1NOCc2c(-c3ccc(C4CCCN4)cc3)[nH]c3cc(F)cc1c23 (single isomer, unassigned) [Example 24_A]
0.0034 µM | > 50 µM | 49.7 µM | CC1(c2ccc(-c3[nH]c4cc(F)cc5c4c3CONC5=O)cc2F)CCCN1 (single isomer, unassigned) [Example 26_A]
0.0028 µM |  |  | CC1(c2ccc(-c3[nH]c4cccc5c4c3CONC5=O)cc2)CCCN1 (stereo not shown) [Example 6_A]
0.0036 µM | > 50 µM | > 50 µM | O=C1NOCc2c(-c3ccc(C4CCCN4)c(F)c3)[nH]c3cccc1c23 (stereo not shown) [Example 11_A]

Compound | IC50 [1] | IC50 [2] | IC50 [3]
CC1(c2ccc(-c3[nH]c4cc(F)cc5c4c3CONC5=O)cc2)CCCN1 (stereo not shown) [Example 25_A] | 0.0023 µM | > 50 µM | > 50 µM
